Laboratory results from patent US20120165332A1, “SULFONAMIDES AND SULFAMIDES AS ZAP-70 INHIBITORS” (Cellzome Limited, priority 2009, published 2012).
pIC50: −log10 of the molar value.

Molecular target: T1, ZAP-70 (Homo sapiens, UniProt P43403)
T1 construct: endogenous in cells; host or cells: cell lysate
T1 sequence (P43403 1-619): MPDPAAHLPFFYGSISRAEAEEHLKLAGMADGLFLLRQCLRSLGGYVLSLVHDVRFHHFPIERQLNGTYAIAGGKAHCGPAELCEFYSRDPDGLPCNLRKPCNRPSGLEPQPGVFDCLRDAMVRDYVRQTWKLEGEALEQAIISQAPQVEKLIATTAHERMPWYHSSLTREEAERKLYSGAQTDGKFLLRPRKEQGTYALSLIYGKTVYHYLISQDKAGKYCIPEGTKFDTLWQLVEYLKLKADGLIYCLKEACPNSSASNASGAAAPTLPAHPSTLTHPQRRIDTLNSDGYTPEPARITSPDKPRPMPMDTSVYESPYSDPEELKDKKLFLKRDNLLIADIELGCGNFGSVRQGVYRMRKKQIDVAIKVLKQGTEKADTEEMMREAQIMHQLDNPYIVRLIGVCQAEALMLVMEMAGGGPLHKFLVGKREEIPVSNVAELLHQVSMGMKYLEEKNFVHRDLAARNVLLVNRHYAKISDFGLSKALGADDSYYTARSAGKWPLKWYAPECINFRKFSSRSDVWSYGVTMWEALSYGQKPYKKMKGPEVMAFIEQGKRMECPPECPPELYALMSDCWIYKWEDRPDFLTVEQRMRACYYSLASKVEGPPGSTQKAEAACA
Test: ZAP-70 kinobeads assay
Format: binding
Conditions: cell lysate, affinity matrix with immobilized aminopyrido-pyrimidine ligand 24, dot blot detection
Description: The compounds of the present invention as described in the previous examples can be tested in the ZAP-70 kinobeads assay as described (EP-A 1862802 and WO-A 2007/137867). Briefly, test compounds (at various concentrations) and the affinity matrix with the immobilized aminopyrido-pyrimidine ligand 24 are added to cell lysate aliquots and allowed to bind to the proteins in the lysate sample. After the incubation time the beads with captured proteins are separated from the lysate. Bound proteins are then eluted and the presence ZAP-70 is detected and quantified using a specific antibody in a dot blot procedure and the Odyssey infrared detection system.

| SMILES | pIC50 |
| --- | --- |
| COc1ccc(Nc2nc(Nc3cc(OC)c(OC)c(OC)c3)ncc2Cl)c(N(CCNC(C)=O)S(C)(=O)=O)c1 [Example 30] | ≥ 7.00 |
| COc1ccc(Nc2nc(Nc3cc(OC)c(OC)c(OC)c3)ncc2Cl)c(N(CC#N)S(C)(=O)=O)c1 [Example 6, N-(2-(5-chloro-2-(3,4,5-trimethoxyphenylamino)pyrimidin-4-ylamino)-5-methoxyphenyl)-N-(cyanomethyl)methanesulfonamide] | ≥ 7.00 |
| COC(=O)CCN(c1c(C)cccc1Nc1nc(Nc2cc(OC)c(OC)c(OC)c2)ncc1F)S(C)(=O)=O [Example 22, Methyl 3-(N-(2-(5-fluoro-2-(3,4,5-trimethoxyphenylamino)pyrimidin-4-ylamino)-6-methylphenyl)methylsulfonamido)propanoate] | 5.00 to 6.00 |
| CS(=O)(=O)N(CCN1CCOCC1)c1ccccc1Nc1nc(Nc2cccc(O)c2)ncc1F [Example 32, N-(2-(5-fluoro-2-(3-hydroxyphenylamino)pyrimidin-4-ylamino)phenyl)-N-(2-morpholinoethyl)methanesulfonamide] | 5.00 to 6.00 |
| COc1cc(Nc2ncc(Cl)c(Nc3ccccc3N(CCNC=O)S(C)(=O)=O)n2)cc(OC)c1OC [Example 2, N-(2-(N-(2-(5-chloro-2-(3,4,5-trimethoxyphenylamino)pyrimidin-4-ylamino)phenyl)methylsulfonamido)ethyl)formamide] | ≥ 7.00 |
| COc1ccc(Nc2nc(Nc3cc(OC)c(OC)c(OC)c3)ncc2Cl)c(N(CCCNC(C)=O)S(C)(=O)=O)c1 [Example 29, N-(3-(N-(2-(5-chloro-2-(3,4,5-trimethoxyphenylamino)pyrimidin-4-ylamino)-5-methoxyphenyl)methylsulfonamido)propyl)acetamide] | ≥ 7.00 |
| COc1cc(Nc2ncc(F)c(Nc3cccc(C)c3N(CC#N)S(C)(=O)=O)n2)cc(OC)c1OC [Example 17, N-(cyanomethyl)-N-(2-(5-fluoro-2-(3,4,5-trimethoxyphenylamino)pyrimidin-4-ylamino)-6-methylphenyl)methanesulfonamide] | 5.00 to 6.00 |
| COc1ccc(Nc2nc(Nc3cc(OC)c(OC)c(OC)c3)ncc2Cl)c(N(CN2CCCC2=O)S(C)(=O)=O)c1 [Example 3, N-(2-(5-chloro-2-(3,4,5-trimethoxyphenylamino)pyrimidin-4-ylamino)-5-methoxyphenyl)-N-((2-oxopyrrolidin-1-yl)methyl)methanesulfonamide] | 5.00 to 6.00 |
| COCCN(c1c(C)cccc1Nc1nc(Nc2cc(OC)c(OC)c(OC)c2)ncc1F)S(C)(=O)=O [Example 13] | 5.00 to 6.00 |
| COc1ccc(Nc2nc(Nc3cc(OC)c(OC)c(OC)c3)ncc2Cl)c(N(CCNC=O)S(C)(=O)=O)c1 [Example 8] | ≥ 7.00 |
| COc1cc(Nc2ncc(F)c(Nc3cccc(C)c3N(CCCC(N)=O)S(C)(=O)=O)n2)cc(OC)c1OC [Example 25, 4-(N-(2-(5-fluoro-2-(3,4,5-trimethoxyphenylamino)pyrimidin-4-ylamino)-6-methylphenyl)methylsulfonamido)butanamide] | 5.00 to 6.00 |
| COc1ccc(Nc2nc(Nc3cc(OC)c(OC)c(OC)c3)ncc2Cl)c(N(CCCNC=O)S(C)(=O)=O)c1 [Example 12, N-(3-(N-(2-(5-chloro-2-(3,4,5-trimethoxyphenylamino)pyrimidin-4-ylamino)-5-methoxyphenyl)methylsulfonamido)propyl)formamide] | ≥ 7.00 |

The remaining lines, values ahead:

| pIC50 | SMILES |
| --- | --- |
| 5.00 to 6.00 | COc1ccc(Nc2nc(Nc3ccnn3C)ncc2Cl)c(N(C[C@H]2CCC(=O)N2)S(C)(=O)=O)c1 [Example 31] |
| 5.00 to 6.00 | COc1cc(Nc2ncc(F)c(Nc3ccccc3N(CCN3CCCC3)S(C)(=O)=O)n2)cc(OC)c1OC [Example 33, N-(2-(5-fluoro-2-(3,4,5-trimethoxyphenylamino)pyrimidin-4-ylamino)phenyl)-N-(2-(pyrrolidin-1-yl)ethyl)methanesulfonamide] |
| ≥ 7.00 | COc1ccc(Nc2nc(Nc3cc(OC)c(OC)c(OC)c3)ncc2Cl)c(N(CCN)S(C)(=O)=O)c1 [Example 7, N-(2-aminoethyl)-N-(2-(5-chloro-2-(3,4,5-trimethoxyphenylamino)pyrimidin-4-ylamino)-5-methoxyphenyl)methanesulfonamide] |
| 5.00 to 6.00 | COc1cc(Nc2ncc(F)c(Nc3cccc(C)c3N(CC(N)=O)S(C)(=O)=O)n2)cc(OC)c1OC [Example 14, 2-(N-(2-(5-fluoro-2-(3,4,5-trimethoxyphenylamino)pyrimidin-4-ylamino)-6-methylphenyl)methylsulfonamido) acetamide] |
| 5.00 to 6.00 | COc1cc(Nc2ncc(F)c(Nc3cccc(C)c3N(CCC(N)=O)S(C)(=O)=O)n2)cc(OC)c1OC [Example 23, 3-(N-(2-(5-fluoro-2-(3,4,5-trimethoxyphenylamino)pyrimidin-4-ylamino)-6-methylphenyl)methylsulfonamido)propanamide] |
| 6.00 to 7.00 | COc1ccc(Nc2ncc(Cl)c(Nc3ccc(OC)cc3N(CCNC=O)S(C)(=O)=O)n2)c(OC)c1 [Example 11] |
| 6.00 to 7.00 | COc1ccc(Nc2nc(Nc3cc(OC)c(OC)c(OC)c3)ncc2Cl)c(N(Cc2cnc[nH]2)S(C)(=O)=O)c1 [Example 1, N-((1H-imidazol-5-yl)methyl)-N-(2-(5-chloro-2-(3,4,5-trimethoxyphenylamino)pyrimidin-4-ylamino)-5-methoxyphenyl)methanesulfonamide] |
| 6.00 to 7.00 | COc1cc(Nc2ncc(F)c(Nc3cccc(C)c3N(CCCN)S(C)(=O)=O)n2)cc(OC)c1OC [Example 21, N-(3-aminopropyl)-N-(2-(5-fluoro-2-(3,4,5-trimethoxyphenylamino)pyrimidin-4-ylamino)-6-methylphenyl)methanesulfonamide] |
| ≥ 7.00 | COc1ccc(Nc2nc(Nc3cc(OC)c(OC)c(OC)c3)ncc2Cl)c(N(C[C@@H]2CCC(=O)N2)S(C)(=O)=O)c1 [Example 4, (S)—N-(2-(5-chloro-2-(3,4,5-trimethoxyphenylamino)pyrimidin-4-ylamino)-5-methoxyphenyl)-N-((5-oxopyrrolidin-2-yl)methyl)methanesulfonamide] |
| ≥ 7.00 | COc1ccc(Nc2nc(Nc3cc(OC)c(OC)cc3C)ncc2Cl)c(N(CCN)S(C)(=O)=O)c1 [Example 9, N-(2-aminoethyl)-N-(2-(5-chloro-2-(4,5-dimethoxy-2-methylphenylamino)pyrimidin-4-ylamino)-5-methoxyphenyl)methanesulfonamide] |
| 6.00 to 7.00 | COc1cc(Nc2ncc(F)c(Nc3cccc(C)c3N(CCC#N)S(C)(=O)=O)n2)cc(OC)c1OC [Example 16, N-(2-cyanoethyl)-N-(2-(5-fluoro-2-(3,4,5-trimethoxyphenylamino)pyrimidin-4-ylamino)-6-methylphenyl)methanesulfonamide] |
| 6.00 to 7.00 | COc1cc(Nc2ncc(F)c(Nc3cccc(C)c3N(CCCNC(C)=O)S(C)(=O)=O)n2)cc(OC)c1OC [Example 27, N-(3-(N-(2-(5-fluoro-2-(3,4,5-trimethoxyphenylamino)pyrimidin-4-ylamino)-6-methylphenyl)methylsulfonamido)propyl)acetamide] |
| 5.00 to 6.00 | COc1cc(Nc2ncc(F)c(Nc3cccc(C)c3N(CCO)S(C)(=O)=O)n2)cc(OC)c1OC [Example 15, N-(2-(5-fluoro-2-(3,4,5-trimethoxyphenylamino)pyrimidin-4-ylamino)-6-methylphenyl)-N-(2-hydroxyethyl)methanesulfonamide] |
| 5.00 to 6.00 | COC(=O)CN(c1c(C)cccc1Nc1nc(Nc2cc(OC)c(OC)c(OC)c2)ncc1F)S(C)(=O)=O [Example 18, Methyl 2-(N-(2-(5-fluoro-2-(3,4,5-trimethoxyphenylamino)pyrimidin-4-ylamino)-6-methylphenyl)methylsulfonamido)acetate] |
| 5.00 to 6.00 | COc1cc(Nc2ncc(F)c(Nc3cccc(C)c3N(CCCC#N)S(C)(=O)=O)n2)cc(OC)c1OC [Example 24, N-(3-cyanopropyl)-N-(2-(5-fluoro-2-(3,4,5-trimethoxyphenylamino)pyrimidin-4-ylamino)-6-methylphenyl)methanesulfonamide] |
| 6.00 to 7.00 | COc1cc(Nc2ncc(F)c(Nc3cccc(C)c3N(CCCNC=O)S(C)(=O)=O)n2)cc(OC)c1OC [Example 28, N-(3-(N-(2-(5-fluoro-2-(3,4,5-trimethoxyphenylamino)pyrimidin-4-ylamino)-6-methylphenyl)methylsulfonamido)propyl)formamide] |
| 5.00 to 6.00 | COc1ccc(Nc2nc(Nc3cc(OC)c(OC)c(OC)c3)ncc2Cl)c(N(C[C@H]2CCC(=O)N2)S(C)(=O)=O)c1 [Example 5, (R)—N-(2-(5-chloro-2-(3,4,5-trimethoxyphenylamino)pyrimidin-4-ylamino)-5-methoxyphenyl)-N-((5-oxopyrrolidin-2-yl)methyl)methanesulfonamide] |
| 6.00 to 7.00 | COc1cc(Nc2ncc(F)c(Nc3cccc(C)c3N(CCN)S(C)(=O)=O)n2)cc(OC)c1OC [Example 19, N-(2-aminoethyl)-N-(2-(5-fluoro-2-(3,4,5-trimethoxyphenylamino)pyrimidin-4-ylamino)-6-methylphenyl)methanesulfonamide] |
